This passage reports IC50 and Papp results from patent US20260327193A1, “INHIBITORS OF PLASMA KALLIKREIN” (Rezolute, Inc., priority 2022, published 2026).

One may read the IC50 as the concentration at which inhibition is half-maximal.

The target of data set [1] is T1, Plasma Kallikrein (Homo sapiens, UniProt P03952). As to the kind of experiment: Plasma kallikrein activity in pooled human plasma. The settings on record: Z-FR-AMC substrate, activated with 10% Actin FS solution, 10 minutes, read-out: Pooled Human Plasma PKal IC50. In kind it is biochemical. Also noted: Plasma Kallikrein activity was also measured in pooled human plasma; from tissue; host or cells: pooled human plasma. The procedure: (§1) Plasma kallikrein protease inhibition assay. Two methods for determining the IC50 of a test compound against Plasma Kallikrein are provided.
T1 sequence (P03952 391-638 limits assumed): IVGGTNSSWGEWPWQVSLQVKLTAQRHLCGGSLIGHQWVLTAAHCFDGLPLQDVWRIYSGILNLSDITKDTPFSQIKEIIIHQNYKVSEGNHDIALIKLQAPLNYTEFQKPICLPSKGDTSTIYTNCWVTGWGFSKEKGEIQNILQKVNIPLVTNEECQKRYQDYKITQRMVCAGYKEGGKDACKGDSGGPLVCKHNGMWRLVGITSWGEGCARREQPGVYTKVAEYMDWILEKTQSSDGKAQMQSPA
T1 sequence (P03952 20-390 partner limits assumed): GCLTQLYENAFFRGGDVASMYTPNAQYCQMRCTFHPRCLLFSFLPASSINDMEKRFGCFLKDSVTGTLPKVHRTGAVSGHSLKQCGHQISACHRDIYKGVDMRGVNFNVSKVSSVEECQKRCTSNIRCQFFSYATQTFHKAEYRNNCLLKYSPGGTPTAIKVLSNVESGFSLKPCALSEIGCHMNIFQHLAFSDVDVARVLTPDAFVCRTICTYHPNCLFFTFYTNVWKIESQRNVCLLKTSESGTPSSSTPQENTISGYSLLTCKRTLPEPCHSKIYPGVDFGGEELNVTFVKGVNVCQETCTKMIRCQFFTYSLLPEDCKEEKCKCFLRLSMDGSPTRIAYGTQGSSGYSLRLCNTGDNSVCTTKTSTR
Second, Plasma Kallikrein activity was also measured in pooled human plasma. First, a 10% Actin FS solution was prepared in assay buffer. Each test compound was dissolved in DMSO and delivered to the reaction mixture along with Z-FR-AMC substrate and pooled human plasma. The multi-well reaction plate was incubated for five minutes at room temperature. To initiate the reaction, the 10% Actin FS solution was added to each well, and kinetic measurements were taken at Ex/Em at 355/460 nm. The fluorescence signal was recorded every 30 seconds for a total of 10 minutes.

In data set [2] the target is T1, Plasma Kallikrein. In words: Plasma kallikrein protease inhibition assay, purified enzyme. Format: biochemical. Also noted: NS0-derived Gly20-Ala638, with a C-terminal 60-His tag; 60-His (so in the source) (C); purchased R&D Systems 2497-SE; host or cells: Mouse myeloma cell line, NS0. To be noted: 10 μM Z-FR-AMC substrate, 20-minute pre-incubation, pH 8.0/8.5, room temperature, read-out: Purified PKal IC50. The procedure: as §1
In the first method was used a reaction buffer composed of 25 mM Tris-HCl (pH 8.0), 100 mM NaCl (pH 8.5), 0.01% Brij35, and 1% DMSO (final). The enzyme used was Plasma Kallikrein (R&D Systems Cat #2497-SE; Recombinant Human Plasma Kallikrein, expressed in Mouse myeloma cell line, NS0-derived Gly20-Ala638, with a C-terminal 60-His tag. MW=70 kDa).
The enzyme was activated by dilution to 200 μg/mL in activation buffer (100 mM Tris, 10 mM CaCl2, 150 mM NaCl, pH 7.5 (TCN), and then combined with an equal volume of 20 μg/mL thermolysin to form a reaction buffer. Each test compound was then dissolved in DMSO and delivered into the reaction buffer. The reaction was initiated by delivering a substrate solution containing 10 μM Z-FR-AMC (Enzo Cat #P-139; AMC: 7-Amino-4-methylcoumarin) into the reaction well after a 20-minute pre-incubation period.
Measurement was conducted with En Vision (PE) with excitation and emission wavelengths of 355 nm and 460 nm, respectively. […]. The enzyme activities were monitored every 5 minutes as a time-course measurement of the increase in signal from fluorescently labeled peptide substrate for 120 minutes at room temperature.
Data was analyzed by taking slope*(signal/time) of the linear portion of measurements. Slope was calculated using Excel, and curve fits were performed using Prism software.

The nature of data set [3]: Caco-2 permeability assay. In kind it is in vitro ADME. The settings on record: human, 10 μM test compound, pH 7.4, 37° C., 120 minutes, direction of the value not given, read-out: Caco-2 Perm. The method, then:
Permeability Assay. A permeability study was conducted using Caco-2 cells (ECACC Cat. no. 09042001) seeded on cell inserts plate (Millicell, Cat #PSHT010R^5) at a density of 80,000 cells per well, and the cells were maintained for 18-21 days in culture medium (1×DMEM with 10% FBS, 0.1 mg/mL Penicillin/Streptomycin). The culture medium was changed every alternate day. Prior to the experiments, the integrity of the cellular monolayer was evaluated by measuring the TEER value using a volt ohm meter and STX100C96 electrode. Only monolayers with TEER values greater than 800 ohm·cm^2 in buffer after the first wash were used.
An assay buffer (HBSS with Ca+2 and Mg+2 buffered with 10 mM HEPES and 25 mM D-Glucose, pH-7.4) was used on apical side as well as on basolateral side.
An intermediate stock solution of a test compound was prepared in DMSO at a concentration of 1 mM in DMSO. This stock solution was spiked in the assay buffer to achieve a target test compound concentration of 10 μM. The organic content of final drug preparation was 1.0% v/v. The bidirectional permeability experiment was done in singlet and the sample analysis was done in duplicate.
The cultured cell monolayer was washed twice with assay buffer (0.4 mL and 0.8 mL was added to the apical and basolateral sides, respectively, of the culture plate), and then buffers from both compartments were discarded.
For the apical to basal (AP>BL) experiment, aliquots of 0.4 mL donor solution (assay buffer, pH 7.4 containing test compound) and 0.8 mL of receiver solutions (assay buffer, pH 7.4, only) were added to the apical and basolateral compartments, respectively. For the basal to apical (BL>AP) experiment, aliquots of 0.8 mL donor solution (assay buffer pH-7.4 containing test compound) and 0.4 mL of receiver solutions (assay buffer, pH-7.4) were added to the basolateral and apical compartments, respectively. The plate was then kept in an incubator at 37° C. for 120 minutes.
Control experiments with Propranolol (High Permeability), Atenolol (Low Permeability), Digoxin (High Efflux-Pgp substrate), and Digoxin+Verapamil (Pgp Inhibitor) in both directions (AP>BL and BL>AP) were performed in separate wells on the same experiment day.
After the completion of the transport experiment, the integrity of the cell monolayer was evaluated by measuring the Lucifer Yellow (LY) rejection. To do this, 400 μL of 10 μM LY was added to each well of the filter plate and incubated for 1 hour at 37° C. Subsequently, the samples were collected from the basolateral compartments, and the LY fluorescence was measured using an excitation wavelength of 485 nm and an emission wavelength of 530 nm. The percent LY rejection across the cell monolayer was calculated by measuring fluorescence in the receiver plate (basolateral compartment) compared to theoretical equilibrium standard.
The study samples (collected from apical and basolateral compartments after 120 min incubation) were analyzed by LCMS/MS, following which the Papp of the compound(s) was calculated in both apical to basal and basal to apical directions. Papp=([DBL]×VBL)/(A×t×[DAP]) where: [DBL]=final drug concentration on the basolateral side, VBL=volume of the basolateral compartment, A=surface area of the cell culture, t=total incubation time, and [DAP]=initial drug concentration on the apical side.
Background: Caco-2 monolayers are a common model of the intestinal barrier.

The structures appear in SMILES notation.

Regarding `N#Cc1cccc(Cc2ccc(Cn3cc(C(=O)NCc4ccc(C(=N)N)cc4F)cn3)cc2)c1` [Example 50, N-(4-carbamimidoyl-2-fluorobenzyl)-1-(4-(3-cyanobenzyl)benzyl)-1H-pyrazole-4-carboxamide], the IC50 on Plasma Kallikrein [1] was less than 100 nM; on Plasma Kallikrein [2] it was less than 1 nM. In addition, the Papp at 2 h, 10 µM in data set [3] is less than 2 ×10⁻⁶ cm/s.
